Laboratory results as given in patent US20060110407A1 (priority 2001, published 2006).

Columns and labels:
Vaccinia strain IHD-J = test system: Vaccinia strain IHD-J; set-up: species or system Balb/c mice; conditions: mouse, in vivo
[1] = test system: camelpox, cowpox, monkeypox, and vaccinia viruses; conditions: cited from earlier work

In the case of `Nc1ccn(C[C@@H](CO)OCP(=O)(O)O)c(=O)n1` [Cidofovir ™, Cidofovir], the “Mean (number of pocks per tail)” value (Vaccinia strain IHD-J) is listed as 24.2, the “Mean difference compared to negative control (Saline)” value (Vaccinia strain IHD-J) is listed as −17.7 and the “effectiveness in treating Orthopoxvirus infections” value (“effectiveness” below) [1] is listed as “effective”.
In the case of `CC(=O)OCC(CCn1cnc2cnc(N)nc21)COC(C)=O` [famciclovir], the “effectiveness” value [1] is given as “effective”.
For `Nc1nc2c(ncn2CCC(CO)CO)c(=O)[nH]1` [penciclovir], the “effectiveness” value [1] is listed as “effective”.
For `COc1c(C)c2c(c(O)c1C/C=C(\C)CCC(=O)O)C(=O)OC2` [mycophenolic acid], the “effectiveness” value [1] is given as “effective”.
In the case of `NC(=O)c1ncn([C@@H]2O[C@H](CO)[C@@H](O)[C@H]2O)n1` [ribavirin], the “effectiveness” value [1] is listed as “effective”.
